Measurements from patent publication US20140051577A1, “SUBSTITUTED 5-(BICYCLO[4.1.0]HEPT-3-EN-2-YL)PENTA-2,4-DIENES AND 5-(BICYCLO[4.1.0]HEPT-3-EN-2-YL)PENT-2-ENE-4-INES AS ACTIVE AGENTS AGAINST ABIOTIC STRESSES IN PLANTS” (priority 2011, published 2014).

Test system: Brassica napus
Test: Drought stress test on crop plants in greenhouse, spray application, efficacy vs untreated stressed control
Assay type: in vivo
Conditions: dosage 25 g/ha, mean of three results
Procedure: Seeds of monocotyledonous and dicotyledonous crop plants were laid out in sandy loam in wood-fiber pots, covered with soil and cultivated in a greenhouse under good growth conditions. The test plants were treated at the early leaf stage (BBCH10-BBCH13). To ensure uniform water supply before commencement of stress, the potted plants were supplied with the maximum amount of water immediately beforehand by dam irrigation and, after application, transferred in plastic inserts in order to prevent subsequent, excessively rapid drying. The inventive compounds, formulated in the form of wettable powders (WP), wettable granules (WG), suspension concentrates (SC) or emulsion concentrates (EC), were sprayed onto the green parts of the plants as an aqueous suspension at an equivalent water application rate of 600 l/ha with addition of 0.2% wetting agent (agrotin). Substance application is followed immediately by stress treatment of the plants (cold or drought stress). […]
After the recovery phase had ended, the intensities of damage were rated in visual comparison to untreated, unstressed controls of the same age (in the case of drought stress) or the same growth stage (in the case of cold stress). The intensity of damage was first assessed as a percentage (100%=plants have died, 0%=like control plants). […]

## CCOC(=O)/C=C(/C)C#CC1(O)C(C)=CC(=O)C2CC21C (centres unmarked) [I.1-394, Ethyl (2Z)-5-(2-hydroxy-1,3-dimethyl-5-oxobicyclo[4.1.0]hept-3-en-2-yl)-3-methylpent-2-en-4-ynoate]
BRSNS as printed
  EF (BRSNS): efficacy, percentage reduction in the intensity of damage (second table headed TABLE A-1): >5%
Brassica napus
  EF (BRSNS): efficacy, percentage reduction in the intensity of damage: >5%
